According to patent publication US8507548B2, “Method for treating addiction using quercetin-containing compositions” (Quercegen Pharmaceuticals LLC, priority 2008, dated 2013):

Legend:
[1] = test system: withdrawal symptoms accompanied with addiction; settings: e.g., alcohol abstinence-induced anxiety and convulsion; Joshi et al., J. Med. Food 2005; cited from earlier work
[2] = test system: neuron cells; assay: re-uptake of neurotransmitters by neuron cells; format: cell-based

O=c1c(O)c(-c2ccc(O)c(O)c2)oc2cc(O)cc(O)c12 [Quercetin]
effect on withdrawal symptoms accompanied with addiction [1]: alleviate withdrawal symptoms | re-uptake of neurotransmitters by neuron cells [2]: block re-uptake of neurotransmitters by neuron cells
